Values of other authors in patent US6627665B2 (Arch Chemicals, Inc., priority 2001, dated 2003).

Test system: rats

On1ccccc1=S.On1ccccc1=S.[Cu] [Copper pyrithione powder, copper pyrithione]
acute inhalation toxicity relative to zinc pyrithione powder: more toxic than zinc pyrithione powder
